# Experimental data reported in PMC8528861, “Structural and functional analysis of target recognition by the lymphocyte adaptor protein LNK” (Nature Communications, 2021).
# Where a SMILES comes first, the peptide text is derived from it. [ ]: non-standard residue; d: D form. pY = N[C@@H](Cc1ccc(OP(=O)(O)O)cc1)C(=O)O
# Target: T1, LNK SH2 domain (Mus musculus, UniProt O09039)
# T1 construct: DNA encoding the mouse LNK SH2 domain (residues 324–446) and an N-terminal NusA; NusA (N, cleaved yes); made in house; host or cells: E. coli (tuner (DE3), BL21(DE3) or C43)
# Assay: SPR competition assay (immobilised IL6ST pY757 peptide)
# Type: binding
# Conditions: not given
# Procedure: SH2 domains typically bind ligands with a specific preference for amino acids at the −2 to +5 positions, relative to phosphotyrosine. […] To determine the contribution of individual residues, we made a series of mutations within the JAK2 phosphopeptide, and measured their affinity for the LNK SH2 domain via a surface plasmon resonance (SPR) competition assay (Fig. 3). The LNK SH2 domain was incubated with increasing concentrations of mutant JAK2 pY813 peptides before being passed over a chip coated with an immobilised low affinity phosphopeptide derived from a site on the intracellular domain of the IL-6 receptor, IL6ST. […] The +2 residue was not mutated as the structure indicates its sidechain points towards solvent.
# The LNK SH2 domain has been proposed to interact with a suite of phosphorylated sites on various signalling proteins[16]–[19],[32]. […] In addition, binding to the activation loops of JAK2 and IRK, and pY785 of JAK3 were also examined. […] Given that SH2 domains will bind to most phosphorylated sequences to some degree, in line with the literature on SH2 domains and their targets[33] we applied a threshold cut-off of 2000 nM, where an IC50 over this value indicates a physiologically irrelevant interaction.
# SPR competition assays were performed on either a Biacore 4000 or 200 (GE Healthcare) in 10 mM HEPES (pH 7.4), 150 mM NaCl, 3.4 mM EDTA, 0.005% Tween 20 using a streptavidin coated chip and were regenerated in 50 mM NaOH, 1 M NaCl. A biotinylated peptide representing the IL6ST pY757 sequence was immobilised to the chip by passing over 1 μg/mL of peptide dissolved in 10 mM HEPES pH 7.4, 150 mM NaCl, 3.4 mM EDA, 0.005% Tween 20. 0.1–0.5 μM of WT LNK SH2 domain was pre-incubated with 2, 1, 0.5, 0.25, 0.125 or 0 mM phosphopeptides before being flowed over the chip for 240–720 seconds at 10–30 μL/min. Data was analysed using Prism, the response of LNK in the presence of the peptide was normalised to an LNK only control and then fitted as an IC50 curve via non-linear regression.
# T1 sequence (O09039 324-446): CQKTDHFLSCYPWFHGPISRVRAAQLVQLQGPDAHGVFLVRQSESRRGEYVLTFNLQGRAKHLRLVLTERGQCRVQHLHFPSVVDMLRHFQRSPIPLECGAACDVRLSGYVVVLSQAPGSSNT
row,SMILES,IC50
1,CC(C)C[C@H](NC(=O)[C@@H]1CCCN1C(=O)[C@H](CC(C)C)NC(=O)[C@H](Cc1ccc(OP(=O)(O)O)cc1)NC(=O)[C@H](CO)NC(=O)[C@H](Cc1c[nH]cn1)NC(=O)[C@H](CC(N)=O)NC(=O)[C@H](C)N)C(=O)N[C@@H](CO)C(=O)N[C@@H](Cc1ccc(O)cc1)C(=O)N[C@@H](Cc1c[nH]c2ccccc12)C(=O)N[C@@H](CCC(N)=O)C(=O)O [MPL pY626] (H-ANHS[pY]LPLSYWQ-OH),4.89 µM
2,CC(C)C[C@H](NC(=O)[C@H](C)NC(=O)[C@H](C)NC(=O)[C@@H](NC(=O)[C@H](CC(=O)O)NC(=O)[C@H](CCCNC(=N)N)NC(=O)[C@H](CC(C)C)NC(=O)[C@H](Cc1ccc(OP(=O)(O)O)cc1)NC(=O)[C@H](CCC(N)=O)NC(=O)CNC(=O)[C@H](CC(C)C)NC(=O)[C@@H](N)C(C)C)[C@@H](C)O)C(=O)O [MPL pY552] (H-VLGQ[pY]LRDTAAL-OH; N-terminus and C-terminus assumed),> 10 µM

# Same assay, conditions: mutant vs WT JAK2 pY813 peptide
row,SMILES,fold decrease in affinity
1,CC(C)C[C@H](NC(=O)[C@H](CCC(=O)O)NC(=O)[C@H](Cc1ccc(OP(=O)(O)O)cc1)NC(=O)[C@H](CC(=O)O)NC(=O)[C@@H]1CCCN1C(=O)[C@@H](NC(=O)[C@@H](N)Cc1ccccc1)[C@@H](C)O)C(=O)N[C@@H](Cc1ccccc1)C(=O)N[C@H](C(=O)N[C@@H](CCC(=O)O)C(=O)N[C@@H](CC(N)=O)C(=O)N[C@@H](CC(=O)O)C(=O)O)[C@@H](C)O [+3F] (H-FTPD[pY]ELFTEND-OH; N-terminus and C-terminus assumed),~ 25 fold
2,CC(C)C[C@H](NC(=O)[C@H](CCCNC(=N)N)NC(=O)[C@H](Cc1ccc(OP(=O)(O)O)cc1)NC(=O)[C@H](CC(=O)O)NC(=O)[C@@H]1CCCN1C(=O)[C@@H](NC(=O)[C@@H](N)Cc1ccccc1)[C@@H](C)O)C(=O)N[C@@H](CC(C)C)C(=O)N[C@H](C(=O)N[C@@H](CCC(=O)O)C(=O)N[C@@H](CC(N)=O)C(=O)N[C@@H](CC(=O)O)C(=O)O)[C@@H](C)O [+1R] (H-FTPD[pY]RLLTEND-OH),> 80 fold

# Same assay, conditions: phosphopeptide competition assay; mean of at least two technical replicates from two, three or four independent experiments; read-out: IC50
row,SMILES,IC50
1,C[C@@H](O)[C@H](NC(=O)[C@@H](N)CCC(=O)O)C(=O)N[C@@H](CC(=O)O)C(=O)N[C@@H](Cc1ccc(OP(=O)(O)O)cc1)C(=O)N[C@@H](Cc1ccc(OP(=O)(O)O)cc1)C(=O)N[C@@H](CCCNC(=N)N)C(=O)N[C@@H](CCCCN)C(=O)NCC(=O)NCC(=O)N[C@@H](CCCCN)C(=O)NCC(=O)O [IRK pY1445/pY1446] (H-ETD[pY][pY]RKGGKG-OH; N-terminus and C-terminus assumed),> 10 µM
2,CSCC[C@H](NC(=O)[C@H](CC(=O)O)NC(=O)[C@H](CCC(N)=O)NC(=O)[C@H](C)N)C(=O)N[C@@H](Cc1ccc(OP(=O)(O)O)cc1)C(=O)N[C@@H](CCCNC(=N)N)C(=O)N[C@@H](CCCNC(=N)N)C(=O)N[C@@H](CC(C)C)C(=O)N[C@@H](CCC(N)=O)C(=O)N1CCC[C@H]1C(=O)N[C@@H](CO)C(=O)N[C@@H](CS)C(=O)O [MPL pY591] (H-AQDM[pY]RRLQPSC-OH; N-terminus and C-terminus assumed),> 10 µM
3,CC[C@H](C)[C@H](NC(=O)[C@H](Cc1ccc(O)cc1)NC(=O)[C@@H](NC(=O)[C@H](Cc1ccc(OP(=O)(O)O)cc1)NC(=O)[C@H](CC(N)=O)NC(=O)[C@H](CC(N)=O)NC(=O)CN)C(C)C)C(=O)N[C@@H](CC(=O)O)C(=O)N1CCC[C@H]1C(=O)O [c-KIT pY568] (H-GNN[pY]VYIDP-OH),1.93 µM
4,CC[C@H](C)[C@H](NC(=O)[C@H](Cc1ccc(OP(=O)(O)O)cc1)NC(=O)[C@H](CCC(=O)O)NC(=O)[C@H](Cc1c[nH]cn1)NC(=O)CN)C(=O)N[C@@H](Cc1ccc(O)cc1)C(=O)N[C@H](C(=O)N[C@@H](CC(=O)O)C(=O)N1CCC[C@H]1C(=O)O)C(C)C [PDGFR pY572] (H-GHE[pY]IYVDP-OH),3.81 µM
5,CC(C)C[C@H](NC(=O)[C@H](CC(N)=O)NC(=O)[C@@H](NC(=O)[C@H](Cc1ccc(OP(=O)(O)O)cc1)NC(=O)[C@H](CC(=O)O)NC(=O)[C@H](CCCNC(=N)N)NC(=O)[C@@H](N)CCC(=O)O)[C@@H](C)O)C(=O)N1CCC[C@H]1C(=O)N[C@@H](CO)C(=O)O [c-FMS pY923] (H-ERD[pY]TNLPS-OH; N-terminus and C-terminus assumed),> 10 µM
6,CC[C@H](C)[C@H](NC(=O)[C@H](C)N)C(=O)N[C@@H](CCC(=O)O)C(=O)N[C@H](C(=O)N[C@@H](CC(=O)O)C(=O)N[C@@H](CCCCN)C(=O)N[C@@H](CCC(=O)O)C(=O)N[C@@H](Cc1ccc(OP(=O)(O)O)cc1)C(=O)N[C@@H](Cc1ccc(OP(=O)(O)O)cc1)C(=O)N[C@@H](CCCCN)C(=O)N[C@H](C(=O)N[C@@H](CCCCN)C(=O)N[C@@H](CCC(=O)O)C(=O)N1CCC[C@H]1C(=O)NCC(=O)O)C(C)C)[C@@H](C)O [JAK2 pY1007/pY1008] (H-AIETDKE[pY][pY]KVKEPG-OH; N-terminus and C-terminus assumed),> 10 µM
7,CSCC[C@H](NC(=O)[C@H](CCC(N)=O)NC(=O)[C@H](CC(C)C)NC(=O)[C@H](CCC(N)=O)NC(=O)[C@H](CO)NC(=O)[C@H](CCC(=O)O)NC(=O)[C@H](Cc1ccc(OP(=O)(O)O)cc1)NC(=O)[C@H](CCCNC(=N)N)NC(=O)[C@H](Cc1ccccc1)NC(=O)[C@H](CCC(N)=O)NC(=O)[C@H](CCCCN)NC(=O)[C@H](CCCCN)NC(=O)[C@@H](N)Cc1ccc(O)cc1)C(=O)O [FLT3 pY572] (H-YKKQFR[pY]ESQLQM-OH; N-terminus and C-terminus assumed),> 10 µM
8,CC[C@H](C)[C@H](NC(=O)[C@H](C)N)C(=O)N[C@@H](CCC(=O)O)C(=O)N[C@H](C(=O)N[C@@H](CC(=O)O)C(=O)N[C@@H](CCCCN)C(=O)N[C@@H](CCC(=O)O)C(=O)N[C@@H](Cc1ccc(OP(=O)(O)O)cc1)C(=O)N[C@@H](Cc1ccc(O)cc1)C(=O)N[C@@H](CCCCN)C(=O)N[C@H](C(=O)N[C@@H](CCCCN)C(=O)N[C@@H](CCC(=O)O)C(=O)N1CCC[C@H]1C(=O)NCC(=O)O)C(C)C)[C@@H](C)O [JAK2 pY1007] (H-AIETDKE[pY]YKVKEPG-OH; N-terminus and C-terminus assumed),> 10 µM
9,CC(C)C[C@H](NC(=O)[C@H](CS)NC(=O)CNC(=O)[C@H](CC(N)=O)NC(=O)[C@H](CCC(N)=O)NC(=O)[C@H](Cc1ccc(OP(=O)(O)O)cc1)NC(=O)[C@H](CC(C)C)NC(=O)[C@H](Cc1c[nH]c2ccccc12)NC(=O)[C@H](CC(C)C)NC(=O)[C@@H](N)CCC(N)=O)C(=O)N[C@@H](Cc1c[nH]c2ccccc12)C(=O)N[C@@H](Cc1c[nH]c2ccccc12)C(=O)O [EPOR pY309] (H-QLWL[pY]QNGCLWW-OH; N-terminus and C-terminus assumed),> 10 µM
10,CC(C)C[C@H](NC(=O)[C@@H]1CCCN1C(=O)[C@@H](N)CC(C)C)C(=O)N[C@@H](CO)C(=O)N[C@@H](Cc1ccc(OP(=O)(O)O)cc1)C(=O)N[C@@H](Cc1c[nH]c2ccccc12)C(=O)N[C@@H](CCC(N)=O)C(=O)N[C@@H](CCC(N)=O)C(=O)N1CCC[C@H]1C(=O)O [MPL pY631] (H-LPLS[pY]WQQP-OH; N-terminus and C-terminus assumed),> 10 µM
11,NC(=O)C[C@H](NC(=O)[C@H](CCC(=O)O)NC(=O)[C@H](Cc1ccc(O)cc1)NC(=O)[C@@H]1CCCN1C(=O)[C@H](CC(N)=O)NC(=O)[C@H](CO)NC(=O)[C@H](Cc1ccc(OP(=O)(O)O)cc1)NC(=O)[C@@H]1CCCN1C(=O)CNC(=O)[C@H](CC(=O)O)NC(=O)[C@@H](N)CO)C(=O)N[C@@H](CO)C(=O)O [EPOR pY485] (H-SDGP[pY]SNPYENS-OH; N-terminus and C-terminus assumed),> 10 µM
